Results published in ChEMBL document CHEMBL4627398 (J Med Chem, 2020).
Converted amounts (≈) assume the structure as drawn. Values belong to the compound of their own block, whether it stands above or below them.

Legend:
[1] = Metabolic stability in human liver microsomes incubated for 60 mins; format: ADME, Microsome; details: read-out: Stability
[2] = Metabolic stability in monkey liver microsomes incubated for 60 mins; format: ADME, Macaca mulatta, Microsome; details: rhesus monkey, read-out: Stability
[3] = Clearance in monkey at 0.1 mg/kg, iv; format: ADME, organism-based, Macaca mulatta; details: rhesus monkey, in vivo
[4] = Total clearance in rat at 1 mg/kg, iv; format: ADME, organism-based; details: in vivo
[5] = Tmax in rat at 10 mg/kg, po; format: ADME, organism-based; details: in vivo
[6] = Total clearance in dog at 0.3 mg/kg, iv; format: ADME, organism-based, Canis lupus familiaris; details: in vivo
[7] = Cmax in rat at 10 mg/kg, po; format: ADME, organism-based; design: dose 10 mg/kg, route oral; details: in vivo
[8] = Metabolic stability in rat hepatocytes incubated for 60 mins; format: ADME, cell-based, Hepatocyte; details: read-out: Stability
[9] = Metabolic stability in dog liver microsomes incubated for 60 mins; format: ADME, Canis lupus familiaris, Microsome; details: read-out: Stability
[10] = Metabolic stability in rat liver microsomes incubated for 60 mins; format: ADME, Microsome; details: read-out: Stability
[11] = Oral bioavailability in dog at 1 mg/kg; format: ADME, organism-based, Canis lupus familiaris; details: in vivo
[12] = Terminal half life in rat at 1 mg/kg, iv; format: ADME, organism-based; details: in vivo, read-out: beta t1/2 (converted)
[13] = Volume of distribution at steady state in rat at 1 mg/kg, iv; format: ADME, organism-based; details: in vivo, read-out: Vdss
[14] = Cmax in dog at 1 mg/kg, po; format: ADME, organism-based, Canis lupus familiaris; design: dose 1 mg/kg, route oral; details: in vivo
[15] = Solubility of the compound in FeSSIF; format: physicochemical
[16] = Metabolic stability in human hepatocytes incubated for 60 mins; format: ADME, cell-based, Hepatocyte; details: read-out: Stability
[17] = Volume of distribution at steady state in dog at 0.3 mg/kg, iv; format: ADME, organism-based, Canis lupus familiaris; details: in vivo, read-out: Vdss
[18] = MRT in dog at 0.3 mg/kg, iv; format: ADME, organism-based, Canis lupus familiaris; details: in vivo
[19] = Apparent permeability in human Caco2 cells; format: ADME, cell-based; details: Caco-2
[20] = Lipophilicity, logD of the compound at pH 7; format: physicochemical; details: buffer
[21] = Oral bioavailability in rat at 10 mg/kg; format: ADME, organism-based; details: in vivo
[22] = Solubility of the compound in PBS buffer; format: physicochemical
[23] = MRT in rat at 1 mg/kg, iv; format: ADME, organism-based; details: in vivo
[24] = Metabolic stability in monkey hepatocytes incubated for 60 mins; format: ADME, cell-based, Macaca mulatta, Hepatocyte; details: rhesus monkey, read-out: Stability
[25] = Terminal half life in dog at 0.3 mg/kg, iv; format: ADME, organism-based, Canis lupus familiaris; details: in vivo, read-out: beta t1/2 (converted)
[26] = Tmax in dog at 1 mg/kg, po; format: ADME, organism-based, Canis lupus familiaris; details: in vivo
[27] = Solubility of the compound in human Caco2 cells; format: ADME, cell-based; details: Caco-2 cells
[28] = Solubility of the compound in FaSSIF; format: physicochemical

SMILES: N#CCC(=O)N1CCCC12CCCN(c1ncnc3[nH]ccc13)C2 (single isomer, unassigned)
remaining at 1 h [1]: 75.7% | remaining at 1 h [2]: 29.4%

SMILES: N#CCC(=O)N1CC(F)(F)C12CCCN(c1ncnc3[nH]ccc13)C2 (single isomer, unassigned)
remaining at 1 h [1]: 88.4% | remaining at 1 h [2]: 64.6%

SMILES: N#CCC(=O)N1CCC12CCCN(c1ncnc3[nH]ccc13)C2 (single isomer, unassigned)
remaining at 1 h [1]: 93.4% | clearance [3]: 12.7 mL/min/kg | remaining at 1 h [2]: 85.2%

SMILES: C[C@H]1CN(C(=O)CC#N)[C@]12CCN(c1ncnc3[nH]ccc13)C2 [DELGOCITINIB]
clearance [4]: 35 mL/min/kg | Tmax [5]: 1.5 h | remaining at 1 h [1]: 97.4% | clearance [6]: 6.17 mL/min/kg | Cmax [7]: 2.5 ng/mL | remaining at 1 h [8]: 94.7% | remaining at 1 h [9]: 97.2% | remaining at 1 h [10]: 90.2% | bioavailability [11]: 124% | half-life [12]: 1.7 h | Vd [13]: 2.1 L/kg | Cmax [14]: 1.9 ng/mL | solubility [15]: > 475 µM | clearance [3]: 4.83 mL/min/kg | remaining at 1 h [16]: 99.3% | Vd [17]: 1.2 L/kg | MRT [18]: 3.2 h | Papp [19]: 0.033 ×10⁻⁶ cm/s | logD [20]: 0.6 | remaining at 1 h [2]: 99.6% | bioavailability [21]: 78% | solubility [22]: > 95 µM | MRT [23]: 1 h | remaining at 1 h [24]: 84.8% | half-life [25]: 2.3 h | Tmax [26]: 0.9 h | solubility [27]: 1 µM (≈ 0.31 µg/mL) | solubility [28]: > 475 µM

Other lines, results leading:

remaining at 1 h [1]: 99.4% | clearance [3]: 5.83 mL/min/kg | remaining at 1 h [2]: 95.4%
SMILES: N#CCC(=O)N1CC(F)(F)C12CCN(c1ncnc3[nH]ccc13)C2 (single isomer, unassigned)

remaining at 1 h [1]: 73.4% | remaining at 1 h [2]: 25.1%
SMILES: CC1CN(C(=O)CC#N)C12CCCN(c1ncnc3[nH]ccc13)C2 (stereo not given)
